According to ChEMBL document CHEMBL5329213, “Discovery of a novel GPR35 agonist with high and equipotent species potency for oral treatment of IBD” (Bioorg Med Chem, 2023):
Blank lines part the entries; values can stand above or below the compound they belong to. Calls of active or inactive are those of the source. The rule behind the calls is not given here.

Experiments:
[1] = target: T1, G-protein coupled receptor 35 (Mus musculus, UniProt Q9ES90); test: Agonist activity at mouse GPR35 expressed in HEK293 cells co-expressing Galpha16 assessed as increase in calcium mobilization by Fluo-4 AM dye based fluorescence assay; format: functional, cell-based
T1 sequence (Q9ES90 whole entry): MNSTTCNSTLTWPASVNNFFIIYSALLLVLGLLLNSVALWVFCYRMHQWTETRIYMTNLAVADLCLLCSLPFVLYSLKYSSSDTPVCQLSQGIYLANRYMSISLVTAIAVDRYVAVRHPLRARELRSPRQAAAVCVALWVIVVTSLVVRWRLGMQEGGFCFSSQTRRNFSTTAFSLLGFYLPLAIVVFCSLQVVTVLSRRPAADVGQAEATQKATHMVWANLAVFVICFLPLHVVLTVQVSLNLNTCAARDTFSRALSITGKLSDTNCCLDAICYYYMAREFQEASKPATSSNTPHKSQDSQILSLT

[2] = target: G-protein coupled receptor 35 (Mus musculus) (UniProt Q9ES90); test: Agonist activity at mouse GPR35 expressed in HEK293 cells co-expressing Galpha16 assessed as increase in calcium mobilization by Fluo-4 AM dye based fluorescence assay relative to-iodoxamide; format: functional, cell-based; conditions: filed as agonist
G-protein coupled receptor 35 (Mus musculus), sequence (Q9ES90 whole entry): as above

[3] = target: T2, G-protein coupled receptor 35 (Homo sapiens, UniProt Q9HC97); test: Agonist activity at human GPR35 expressed in HEK293 cells co-expressing Galpha16 assessed as increase in calcium mobilization by Fluo-4 AM dye based fluorescence assay; format: functional, cell-based
T2 sequence (Q9HC97 whole entry): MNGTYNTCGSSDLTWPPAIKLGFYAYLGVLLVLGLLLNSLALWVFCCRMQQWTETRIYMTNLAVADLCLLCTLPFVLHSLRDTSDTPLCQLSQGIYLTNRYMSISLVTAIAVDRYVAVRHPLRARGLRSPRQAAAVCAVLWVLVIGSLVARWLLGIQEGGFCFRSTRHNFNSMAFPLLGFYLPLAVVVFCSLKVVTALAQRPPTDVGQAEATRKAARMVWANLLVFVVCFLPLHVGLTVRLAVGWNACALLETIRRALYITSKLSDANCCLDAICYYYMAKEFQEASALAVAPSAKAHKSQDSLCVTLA

[4] = Agonist activity at rat GPR35 by beta-arrestin recruitment assay
[5] = Stability of the compound in plasma of DSS-induced ulcerative colitis C57BL/6 mouse model at 20 mg/kg, po qd for 7 days administered via gavage; format: ADME, organism-based; conditions: in vivo, 168 h, time 7 day
[6] = Stability of the compound in mouse plasma; format: ADME, cell-free
[7] = target: T2, G-protein coupled receptor 35; test: Agonist activity at human GPR35 by beta-arrestin recruitment assay; format: functional
[8] = Agonist activity at rat GPR35 expressed in HEK293 cells co-expressing Galpha16 assessed as increase in calcium mobilization by Fluo-4 AM dye based fluorescence assay
Mus musculus [9] = test: Anti-colitis activity against DSS-induced ulcerative colitis C57BL/6 mouse model assessed as reduction in colitis symptoms by measuring decrease in body weight loss at 200 mg/kg, po qd for 7 days administered via gavage; format: functional, organism-based; conditions: time 7.0 day
Mus musculus [10] = test: Anti-colitis activity against DSS-induced ulcerative colitis C57BL/6 mouse model assessed as reduction in colitis symptoms by measuring decrease in stool thinning at 200 mg/kg, po qd for 7 days administered via gavage; format: functional, organism-based; conditions: time 7.0 day
Mus musculus [11] = test: Anti-colitis activity against DSS-induced ulcerative colitis C57BL/6 mouse model assessed as reduction in colitis symptoms by measuring decrease in rectal bleeding at 200 mg/kg, po qd for 7 days administered via gavage; format: functional, organism-based; conditions: time 7.0 day
[12] = target: T1, G-protein coupled receptor 35; test: Agonist activity at mouse GPR35 by beta-arrestin recruitment assay; format: functional

- EC50 [1]: 3260 nM
SMILES: CCOC(=O)C(=O)Nc1cccc(NC(=O)C(=O)OCC)c1Cl

- EC50 [1]: 263 nM
- Emax [2]: 139%
- EC50 [3]: 29.2 nM
SMILES: CCOC(=O)C(=O)Nc1cc(C#N)cc(NC(=O)C(=O)OCC)c1Cl [LODOXAMIDE ETHYL]

- EC50 [1]: 55.8 nM
SMILES: O=C(O)C(=O)Nc1cc(C(F)(F)F)cc(NC(=O)C(=O)O)c1Cl

- EC50 [1]: 42.5 nM
SMILES: CCOC(=O)C(=O)Nc1cc(Br)cc(NC(=O)C(=O)OCC)c1Cl

- EC50 [1]: 8060 nM
- Emax [2]: 105%
- EC50 [3]: 4250 nM
SMILES: O=C(O)C(=O)Nc1cccc(NC(=O)C(=O)O)c1

- EC50 [1]: 61 nM
SMILES: O=C(Nc1cc(C(F)(F)F)cc(NC(=O)C(=O)OC2CCCCC2)c1Cl)C(=O)OC1CCCCC1

- EC50 [1]: 3640 nM
SMILES: O=C(O)C(=O)Nc1cccc(NC(=O)C(=O)O)c1Cl

- EC50 [4]: 1400 nM
SMILES: COc1ccc(C(=O)Nc2cc(Br)cc3c(=O)cc(C(=O)O)oc23)cc1

- EC50 [1]: 63.7 nM
- Stability [6]: Unstable
SMILES: CCOC(=O)C(=O)Nc1cc(C(F)(F)F)cc(NC(=O)C(=O)OCC)c1Cl
- Stability [5]: Unstable

- EC50 [1]: 422 nM
- EC50 [7]: 4 nM
- EC50 [8]: 21.5 nM
- EC50 [4]: 13 nM
- EC50 [3]: 41.1 nM
SMILES: N#Cc1cc(NC(=O)C(=O)O)c(Cl)c(NC(=O)C(=O)O)c1 [LODOXAMIDE]

- EC50 [1]: 20.9 nM
SMILES: CCOC(=O)C(=O)Nc1cc(C(=O)OCC(C)C)cc(NC(=O)C(=O)OCC)c1Cl

- EC50 [1]: > 10000 nM
SMILES: Cc1c(NC(=O)C(=O)O)cc(C(=O)O)cc1NC(=O)C(=O)O

- EC50 [1]: 27.2 nM
SMILES: COC(=O)C(=O)Nc1cc(C(F)(F)F)cc(NC(=O)C(=O)OC)c1Cl

SMILES: Nc1ccc(O)c(C(=O)O)c1
- Activity (Mus musculus [9]): Active
- Activity (Mus musculus [10]): Active
- Activity (Mus musculus [11]): Active

- EC50 [4]: > 100000 nM
SMILES: O=C(O)c1cc2ccccc2c(Cc2c(O)c(C(=O)O)cc3ccccc23)c1O [PAMOIC ACID]

- EC50 [12]: 58000 nM
- EC50 [7]: 8000 nM
- EC50 [4]: 4000 nM
SMILES: O=C(O)c1cc(=O)c2c(OCC(O)COc3cccc4oc(C(=O)O)cc(=O)c34)cccc2o1 [CROMOLYN]

- EC50 [1]: 12.4 nM
SMILES: O=C(O)C(=O)Nc1cc(NC(=O)C(=O)O)cc(C(F)(F)F)c1

- EC50 [12]: 1000 nM
- EC50 [4]: 100 nM
SMILES: CCCOc1ccccc1-c1nc2[nH]nnc2c(=O)[nH]1 [ZAPRINAST]

- EC50 [1]: 9160 nM
SMILES: CN(C)c1c(NC(=O)C(=O)O)cc(C#N)cc1NC(=O)C(=O)O

- EC50 [1]: 376 nM
SMILES: N#Cc1cc(NC(=O)C(=O)O)cc(NC(=O)C(=O)O)c1

- EC50 [1]: 28.1 nM
- Emax [2]: 106%
- EC50 [8]: 34.6 nM
- EC50 [3]: 25.8 nM
SMILES: O=C(O)C(=O)Nc1cc(Br)cc(NC(=O)C(=O)O)c1Cl

- EC50 [4]: 8000 nM
SMILES: O=C1N/C(=N/c2ccccc2F)S/C1=C\c1ccc(C(=O)O)cc1

- EC50 [1]: 5300 nM
- Emax [2]: 75%
- EC50 [3]: 125 nM
SMILES: O=C(O)C(=O)Nc1cc(C(=O)O)cc(NC(=O)C(=O)O)c1Cl

- EC50 [1]: 119 nM
- Emax [2]: 86%
- EC50 [3]: 75 nM
SMILES: O=C(Nc1cc(C(F)(F)F)cc(NC(=O)C(=O)OC2CC2)c1Cl)C(=O)OC1CC1

- EC50 [4]: 10 nM
SMILES: CCCCc1cc2c(=O)cc(C(=O)O)[nH]c2c2c(=O)cc(C(=O)O)[nH]c12 [BUFROLIN]

- EC50 [1]: 69.1 nM
SMILES: Cc1cc(NC(=O)C(=O)O)c(Cl)c(NC(=O)C(=O)O)c1

- EC50 [1]: 3110 nM
SMILES: COc1c(NC(=O)C(=O)O)cc(C#N)cc1NC(=O)C(=O)O

- EC50 [1]: 126 nM
- Emax [2]: 91%
- EC50 [3]: 1040 nM
SMILES: O=C(Nc1cc(C(F)(F)F)cc(NC(=O)C(=O)OC2CCCC2)c1Cl)C(=O)OC1CCCC1
